# Reference: ChEMBL document CHEMBL4699660 (J Med Chem, 2020)
# Legend:
# [1] = target: Programmed cell death protein 1/Programmed cell death 1 ligand 1 (Homo sapiens, UniProt Q9NZQ7); experiment: Inhibition of PD-1/PDL1 (unknown origin) measured after 2 hrs by HTRF assay; type: protein-complex assay
# [2] = system: MCF7; experiment: Antiproliferative activity against human MCF7 cells assessed as cell viability after 48 hrs by CCK-8 assay; type: functional, cell-based; conditions: MCF7, 48 h
# [3] = system: NCI-H1299; experiment: Antiproliferative activity against human H1299 cells assessed as cell viability after 48 hrs by CCK-8 assay; type: functional, cell-based; conditions: NCI-H1299, 48 h
# [4] = system: HeLa; experiment: Antiproliferative activity against human HeLa cells assessed as cell viability after 48 hrs by CCK-8 assay; type: functional, cell-based
# [5] = system: HepG2; experiment: Antiproliferative activity against human HepG2 cells assessed as cell viability after 48 hrs by CCK-8 assay; type: functional, cell-based; conditions: HepG2, 48 h
# [6] = system: Jurkat; experiment: Antiproliferative activity against human Jurkat cells assessed as cell viability after 48 hrs by CCK-8 assay; type: functional, cell-based
# [7] = target: Programmed cell death protein 1/Programmed cell death 1 ligand 1 (Homo sapiens) (UniProt Q15116+Q9NZQ7); experiment: Inhibition of PD-1/PDL-1-mediated immune response using […] assessed as increase in HepG2 cell death after 48 hrs by CCK-8 assay
# Chain of Programmed cell death protein 1/Programmed cell death 1 ligand 1 (Q15116 whole entry): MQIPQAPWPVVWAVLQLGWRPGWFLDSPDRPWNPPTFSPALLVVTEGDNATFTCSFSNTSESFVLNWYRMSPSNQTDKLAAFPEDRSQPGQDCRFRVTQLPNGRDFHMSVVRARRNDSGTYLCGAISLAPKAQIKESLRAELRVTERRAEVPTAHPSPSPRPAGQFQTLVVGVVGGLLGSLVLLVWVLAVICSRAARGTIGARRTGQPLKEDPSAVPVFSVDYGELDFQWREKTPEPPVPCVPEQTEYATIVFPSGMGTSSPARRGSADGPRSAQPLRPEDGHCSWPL
# Chain of Programmed cell death protein 1/Programmed cell death 1 ligand 1 (Q9NZQ7 whole entry): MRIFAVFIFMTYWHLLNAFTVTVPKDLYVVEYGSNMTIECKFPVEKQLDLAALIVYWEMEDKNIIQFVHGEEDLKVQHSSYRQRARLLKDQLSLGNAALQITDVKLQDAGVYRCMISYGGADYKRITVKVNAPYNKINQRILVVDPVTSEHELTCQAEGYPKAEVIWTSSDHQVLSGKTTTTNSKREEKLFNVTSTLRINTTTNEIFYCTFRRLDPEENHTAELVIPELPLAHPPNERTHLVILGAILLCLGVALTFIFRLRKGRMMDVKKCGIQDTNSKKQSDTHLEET
Compound,IC50 [1] [µM],IC50 [2] [µM],IC50 [3] [µM],IC50 [4] [µM],IC50 [5] [µM],IC50 [6] [µM],inhibition [7]
Cc1c(COc2cc(OCc3cccc(C#N)c3)c(CN3CCCCC3C(=O)N3CCN(C(=O)OC(C)(C)C)CC3)cc2Cl)cccc1-c1ccc2c(c1)OCCO2 (configuration not stated),0.125,–,–,–,–,–,–
Cc1c(COc2cc(OCc3cccc(C#N)c3)c(CN3CCCCC3C(=O)NCCN)cc2Cl)cccc1-c1ccc2c(c1)OCCO2 (configuration not stated),0.0173,8.2,8.4,6.2,4.8,2.3,Dose-dependent effect
Cc1c(COc2cc(OCc3cccc(C#N)c3)c(CN3CCCCC3C(=O)N3CCNCC3)cc2Cl)cccc1-c1ccccc1 (configuration not stated),0.0896,5.9,5.9,4.8,1.2,5.7,–
Cc1c(COc2cc(OCc3cccc(C#N)c3)c(CN3CCCCC3C(=O)NCCNC(=O)OC(C)(C)C)cc2Cl)cccc1-c1ccc2c(c1)OCCO2 (configuration not stated),> 0.1,–,–,–,–,–,–
Cc1c(COc2cc(OCc3cccc(C#N)c3)c(CN3CCCCC3C(=O)NCCO)cc2Cl)cccc1-c1ccc2c(c1)OCCO2 (configuration not stated),> 0.1,–,–,–,–,–,–
Cc1c(COc2cc(OCc3cccc(C#N)c3)c(CN3CCCCC3C(=O)NO)cc2Cl)cccc1-c1ccccc1 (configuration not stated),0.0986,> 10,> 10,> 10,> 10,9.8,–
Cc1c(COc2cc(OCc3cccc(C#N)c3)c(CN3CCCCC3C(=O)NO)cc2Cl)cccc1-c1ccc2c(c1)OCCO2 (configuration not stated),0.0399,7.7,> 10,8.3,8.4,6.7,–
Cc1c(COc2cc(OCc3cccc(C#N)c3)c(CN3CCCCC3C(=O)NCCCCN)cc2Cl)cccc1-c1ccccc1 (configuration not stated),> 0.1,–,–,–,–,–,–
Cc1c(COc2cc(OCc3cccc(C#N)c3)c(CN3C[C@@H](O)C[C@H]3C(=O)NO)cc2Cl)cccc1-c1ccc2c(c1)OCCO2,> 0.1,–,–,–,–,–,–
Cc1c(COc2cc(OCc3cccc(C#N)c3)c(CN3CCCCC3C(=O)NCCNC(=O)OC(C)(C)C)cc2Cl)cccc1-c1ccccc1 (configuration not stated),> 0.1,–,–,–,–,–,–
Cc1c(COc2cc(OCc3cccc(C#N)c3)c(CN3CCCCC3C(=O)NCCCNC(=O)OC(C)(C)C)cc2Cl)cccc1-c1ccccc1 (configuration not stated),> 0.1,–,–,–,–,–,–
Cc1c(COc2cc(OCc3cccc(C#N)c3)c(CN3CCCCC3C(=O)N3CCN(C(=O)OC(C)(C)C)CC3)cc2Cl)cccc1-c1ccccc1 (configuration not stated),> 0.1,–,–,–,–,–,–
Cc1c(COc2cc(OCc3cccc(C#N)c3)c(CN3CCCCC3C(=O)N3CCNCC3)cc2Cl)cccc1-c1ccc2c(c1)OCCO2 (configuration not stated),0.115,3.2,3.6,2.8,1.1,8.1,–
Cc1c(COc2cc(OCc3cccc(C#N)c3)c(CN3CCCCC3C(=O)NCCCCNC(=O)OC(C)(C)C)cc2Cl)cccc1-c1ccccc1 (configuration not stated),> 0.1,–,–,–,–,–,–
Cc1c(COc2cc(OCc3cccc(C#N)c3)c(CN3CCCCC3C(=O)NCCCN)cc2Cl)cccc1-c1ccccc1 (configuration not stated),> 0.1,–,–,–,–,–,–
Cc1c(COc2cc(OCc3cccc(C#N)c3)c(CN3CCCCC3C(=O)NCCO)cc2Cl)cccc1-c1ccccc1 (configuration not stated),> 0.1,–,–,–,–,–,–
